Literature values, collected in US20170326147A1, “INHIBITING BLOOD PRESSURE DROP IN THE TREATMENT OF ERECTILE DYSFUNCTION” (FORMUREX, INC., priority 2014, published 2017).
Where a name gives a salt, the structure may show the parent alone.

Legend:
[1] = tested on: plasma proteins; conditions: independent of total drug concentration

Structure (SMILES) | bound to plasma proteins [1] | Tmax average, fasting subjects (fasting) | delay of mean Tmax by food in the stomach (fed) | bioavailability (mean absolute), oral administration (oral, absorption through the digestive tract)
CCCc1nn(C)c2c(=O)[nH]c(-c3cc(S(=O)(=O)N4CCNCC4)ccc3OCC)nc12 [N-desmethyl metabolite, N-desmethyl sildenafil] | approximately 96% | – | – | –
CCCc1nn(C)c2c(=O)[nH]c(-c3cc(S(=O)(=O)N4CCN(C)CC4)ccc3OCC)nc12 [sildenafil citrate] | approximately 96% | about 1 hr | about 1.1 hr | about 40%
